# According to patent publication US12398121B2 (Nuvation Bio Inc., priority 2018, dated 2025):
# Columns and labels:
# AR in LNCaP cytosol = target: T1, AR in LNCaP cytosol (Homo sapiens, UniProt P10275, T878A); experiment: AR binding assay (3H-methyltrienolone displacement)
# T1 construct: endogenous in cells; host or cells: LNCaP cytosol
# T1 sequence (P10275 1-920 T878A): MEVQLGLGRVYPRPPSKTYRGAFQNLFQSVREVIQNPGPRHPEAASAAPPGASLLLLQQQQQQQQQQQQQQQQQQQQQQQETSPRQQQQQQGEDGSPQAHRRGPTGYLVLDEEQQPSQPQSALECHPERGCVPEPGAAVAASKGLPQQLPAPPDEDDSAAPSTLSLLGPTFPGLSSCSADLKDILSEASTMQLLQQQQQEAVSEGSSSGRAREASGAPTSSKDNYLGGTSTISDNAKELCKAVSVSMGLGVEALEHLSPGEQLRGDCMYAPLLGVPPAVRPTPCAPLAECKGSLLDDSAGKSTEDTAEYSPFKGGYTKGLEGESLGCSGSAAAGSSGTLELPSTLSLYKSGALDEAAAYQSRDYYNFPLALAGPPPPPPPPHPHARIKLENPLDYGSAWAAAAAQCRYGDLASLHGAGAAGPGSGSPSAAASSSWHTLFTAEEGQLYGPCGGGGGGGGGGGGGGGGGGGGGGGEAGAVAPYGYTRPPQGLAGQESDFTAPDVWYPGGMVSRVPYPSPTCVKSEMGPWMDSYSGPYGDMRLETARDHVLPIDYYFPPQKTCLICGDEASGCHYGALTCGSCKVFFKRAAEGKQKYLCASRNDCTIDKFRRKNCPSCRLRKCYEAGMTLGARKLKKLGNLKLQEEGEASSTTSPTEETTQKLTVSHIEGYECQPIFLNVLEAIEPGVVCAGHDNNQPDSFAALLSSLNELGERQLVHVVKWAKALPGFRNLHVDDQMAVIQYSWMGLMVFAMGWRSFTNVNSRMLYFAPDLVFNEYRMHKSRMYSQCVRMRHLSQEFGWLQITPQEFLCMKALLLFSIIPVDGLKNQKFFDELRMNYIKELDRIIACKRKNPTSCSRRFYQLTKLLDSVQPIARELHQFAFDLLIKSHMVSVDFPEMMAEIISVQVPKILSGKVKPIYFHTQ
# Method: The following methods are for evaluating the in vitro biology properties of the test articles. • a. RBC HotSpot Poly(ADP-ribose) Polymerases 1 (PARP1) and Poly(ADP-ribose) Polymerases 2 (PARP2) Assays: The assay principle is radioisotope-based filter binding assay where incorporation of radioisotope-labeled NAD^+ into the substrate captured on filter is detected after washout free NAD^+. Data were analyzed using Excel and GraphPad Prism software for IC50 curve fits. Each assay was conducted with PJ34 as a positive control. • i. PARP1 assay: Human recombinant PARP1 at a final concentration of 2.5 nM was combined with histone H4 (20 μM) and test articles at various concentrations in reaction buffer (50 mM Tris-HCL, pH 8.0, 50 mM NaCl, 10 mM MgCl2, 1 mM DTT, 1% DMSO, and 20 μg/mL activated DNA). The solution was inoculated for 20 min at room temperature and the reaction initiated by adding [adenylate-^32P]-Nicotinamide Adenine Dinucleotide, ^32P-NAD^+ at a final concentration of 10 μM. After incubation for 2 hour at room temperature, the reaction mixture was filtered and washed with 0.75% phosphoric acid for radioactivity detection. • ii. PARP2 assay: Human recombinant PARP2 at a final concentration of 2.5 nM was combined with histone H3 (20 μM) and test articles at various concentrations in reaction buffer (50 mM Tris-HCL, pH 8.0, 50 mM NaCl, 10 mM MgCl2, 1 mM DTT, 1% DMSO, and 20 μg/mL activated DNA). The solution was inoculated for 20 min at room temperature and the reaction was initiated by adding [adenylate-^32P]-Nicotinamide Adenine Dinucleotide, ^32P-NAD^+ at a final concentration of 10 μM. After incubation for 2 hour at room temperature, the reaction mixture was filtered and washed with 0.75% phosphoric acid for radioactivity detection. • b. AR binding assay: AR in LNCaP cytosol was used for determining the binding affinity of test articles and the reference compound—progesterone (Sigma, Cat: E2785, St. Louis, MO). IC50s were determined using 8 concentrations/compound. Cytosol was plated at 200 μg/well (100 μL) into a 96-well conical polypropylene plate (Agilent, Cat: 5042-1385, Santa Clara, CA) and mixed with 3 μL of test compound. After adding 100 μL of ^3H-methyltrienolone (PerkinElmer, Cat: NET590250UC, San Jose, CA), the plate was sealed and shaken at 300 rpm at 4° C. for 24 hours. Post incubation, 100 μL of radioligand adsorption buffer containing 10 mM Tris-HCl, pH 7.4; 1.5 mM EDTA; 1 mM DTT; 0.25% charcoal; 0.0025% dextran was added to individual well. Plate was shaken for 15 min at 4′C followed by centrifugation at 3000 rpm for 30 min at 4° C. 150 μL of supernatant was transferred into scint-tube (PerkinElmer, Cat: 6000192) and mixed with 2 mL of Ultima Gold Cocktail (PerkinElmer, Cat: 6013329). Radioactivity was counted using a TriCarb 2910 TR scintillation counter (PerkinElmer). Inhibition of the radioactivity by test articles were calculated using the equation below: % Inhibition=(1−(Assay well−Average_LC)/(Average_HC−Average_LC))×100%.
# IC50 values were calculated and graphed using the model “log(inhibitor) vs. response—Variable slope” included in GraphPad Prism 5 (San Diego, CA). The Ki values were further calculated using the equation below where [L] was the radioligand concentration (1 nM) using in this study. Kd value was 0.332 nM. Ki=IC50/(1+[L]/Kd) c. AR transactivation: Human AR cloned into a CMV vector backbone was used for the transactivation study. HEK-293 cells were plated at 80,000 cells per well of a 24 well plate in DME+5% csFBS. Twenty four hours later, the cells were transfected using Lipofectamine (Invitrogen, Carlsbad, CA) with 0.25 μg GRE-LUC, 0.01 μg CMV-LUC (renilla luciferase) and 25 ng of the AR in OPTIMEM medium. The cells were treated 24 hrs after transfection with various ligands (10^−12 to 10^−5 M final concentrations) and luciferase assay were performed 48 hours after transfection. […]
# DNA-PK = target: T2, DNA-PK (Homo sapiens, UniProt P78527); experiment: DNA-PK inhibition (Reaction Biology HotSpot Kinase Assay, radioisotope filter binding); type: biochemical; conditions: 5 nM DNA-PK, 20 μM DNA-PKtide, 33P-ATP
# T2 construct: purchased Invitrogen, Carlsbad, CA PR9107A
SMILES,Ki (AR in LNCaP cytosol) [nM],IC50 (DNA-PK) [nM]
"CCN1C(=O)CNc2ncc(-c3ccc(-c4ncn(CCCCCCNC(=O)c5ccc(N6C(=S)N(c7ccc(C#N)c(C(F)(F)F)c7)C(=O)C6(C)C)cc5F)n4)nc3C)nc21 [Compound 3.1, 4-(3-(4-cyano-3-(trifluoromethyl)phenyl)-5,5-dimethyl-4-oxo-2-thioxoimidazolidin-1-yl)-N-(6-(3-(5-(8-ethyl-7-oxo-5,6,7,8-tetrahydropyrazino[2,3-b]pyrazin-2-yl)-6-methylpyridin-2-yl)-1H-1,2,4-triazol-1-yl)hexyl)-2-fluorobenzamide]",21,> 10000
"CCN1C(=O)CN(CCCCCCNC(=O)c2ccc(N3C(=S)N(c4ccc(C#N)c(C(F)(F)F)c4)C(=O)C3(C)C)cc2F)c2ncc(-c3ccc(-c4nc[nH]n4)nc3C)nc21 [Compound 3.2, 4-(3-(4-cyano-3-(trifluoromethyl)phenyl)-5,5-dimethyl-4-oxo-2-thioxoimidazolidin-1-yl)-N-(6-(4-ethyl-6-(2-methyl-6-(1H-1,2,4-triazol-3-yl)pyridin-3-yl)-3-oxo-3,4-dihydropyrazino[2,3-b]pyrazin-1(2H)-yl)hexyl)-2-fluorobenzamide]",19,> 10000
